{"source": "ChEMBL document CHEMBL1649076", "about": "“Discovery of 5-chloro-N2-[(1S)-1-(5-fluoropyrimidin-2-yl)ethyl]-N4-(5-methyl-1H-pyrazol-3-yl)pyrimidine-2,4-diamine (AZD1480) as a novel inhibitor of the Jak/Stat pathway” (J Med Chem, 2011)", "key": {"[1]": {"biological_target": "T1, Tyrosine-protein kinase JAK3 (Homo sapiens, UniProt P52333)", "T1 sequence (P52333 whole entry)": "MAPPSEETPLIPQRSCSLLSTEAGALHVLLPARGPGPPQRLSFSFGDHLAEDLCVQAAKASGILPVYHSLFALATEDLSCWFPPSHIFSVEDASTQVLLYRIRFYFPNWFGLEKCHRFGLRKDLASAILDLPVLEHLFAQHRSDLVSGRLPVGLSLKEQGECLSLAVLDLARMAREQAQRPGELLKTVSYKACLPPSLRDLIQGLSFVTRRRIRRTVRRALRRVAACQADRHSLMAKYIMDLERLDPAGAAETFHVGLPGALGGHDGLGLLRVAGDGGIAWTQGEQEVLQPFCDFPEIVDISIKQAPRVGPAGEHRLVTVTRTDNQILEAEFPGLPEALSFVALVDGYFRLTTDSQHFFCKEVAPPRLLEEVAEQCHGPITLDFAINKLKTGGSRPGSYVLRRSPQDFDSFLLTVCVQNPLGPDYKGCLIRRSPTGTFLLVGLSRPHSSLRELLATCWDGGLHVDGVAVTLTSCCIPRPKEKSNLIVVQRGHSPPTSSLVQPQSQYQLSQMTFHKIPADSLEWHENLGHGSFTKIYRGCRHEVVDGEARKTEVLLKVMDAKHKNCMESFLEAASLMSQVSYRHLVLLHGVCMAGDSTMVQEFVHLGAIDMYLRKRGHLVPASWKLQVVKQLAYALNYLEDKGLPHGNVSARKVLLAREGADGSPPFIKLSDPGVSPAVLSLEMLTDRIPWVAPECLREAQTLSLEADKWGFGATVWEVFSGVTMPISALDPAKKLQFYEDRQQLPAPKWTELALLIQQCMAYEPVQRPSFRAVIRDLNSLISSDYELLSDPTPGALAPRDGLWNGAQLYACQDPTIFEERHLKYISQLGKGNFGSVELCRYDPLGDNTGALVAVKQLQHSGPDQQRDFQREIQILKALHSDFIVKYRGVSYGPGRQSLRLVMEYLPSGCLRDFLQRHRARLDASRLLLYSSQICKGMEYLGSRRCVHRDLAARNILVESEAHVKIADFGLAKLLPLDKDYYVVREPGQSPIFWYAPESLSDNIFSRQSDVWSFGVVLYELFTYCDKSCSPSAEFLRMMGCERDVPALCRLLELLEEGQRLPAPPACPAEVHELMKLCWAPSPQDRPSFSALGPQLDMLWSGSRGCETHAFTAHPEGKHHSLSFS", "assay": "Inhibition of JAK3 using 5 mM of ATP"}, "[2]": {"assay": "Growth inhibition of mouse BA/F3 cells expressing Tel-JAK2 kinase after 48 hrs by MTS assay", "type": "functional", "details": "BaF3, 48 h"}, "[3]": {"assay": "Aqueous equilibrium solubility of the compound at pH 7.4 by HPLC-UV analysis", "type": "physicochemical"}, "[4]": {"assay": "Octanol-water partition coefficient, log D of the compound at pH 7.4 by shake flask method", "type": "physicochemical"}, "[5]": {"assay": "Inhibition of Stat5 phosphorylation in mouse Ba/F3 cells expressing EPOR", "details": "BaF3"}, "[6]": {"biological_target": "T2, Tyrosine-protein kinase JAK2 (Homo sapiens, UniProt O60674)", "T2 sequence (O60674 whole entry)": "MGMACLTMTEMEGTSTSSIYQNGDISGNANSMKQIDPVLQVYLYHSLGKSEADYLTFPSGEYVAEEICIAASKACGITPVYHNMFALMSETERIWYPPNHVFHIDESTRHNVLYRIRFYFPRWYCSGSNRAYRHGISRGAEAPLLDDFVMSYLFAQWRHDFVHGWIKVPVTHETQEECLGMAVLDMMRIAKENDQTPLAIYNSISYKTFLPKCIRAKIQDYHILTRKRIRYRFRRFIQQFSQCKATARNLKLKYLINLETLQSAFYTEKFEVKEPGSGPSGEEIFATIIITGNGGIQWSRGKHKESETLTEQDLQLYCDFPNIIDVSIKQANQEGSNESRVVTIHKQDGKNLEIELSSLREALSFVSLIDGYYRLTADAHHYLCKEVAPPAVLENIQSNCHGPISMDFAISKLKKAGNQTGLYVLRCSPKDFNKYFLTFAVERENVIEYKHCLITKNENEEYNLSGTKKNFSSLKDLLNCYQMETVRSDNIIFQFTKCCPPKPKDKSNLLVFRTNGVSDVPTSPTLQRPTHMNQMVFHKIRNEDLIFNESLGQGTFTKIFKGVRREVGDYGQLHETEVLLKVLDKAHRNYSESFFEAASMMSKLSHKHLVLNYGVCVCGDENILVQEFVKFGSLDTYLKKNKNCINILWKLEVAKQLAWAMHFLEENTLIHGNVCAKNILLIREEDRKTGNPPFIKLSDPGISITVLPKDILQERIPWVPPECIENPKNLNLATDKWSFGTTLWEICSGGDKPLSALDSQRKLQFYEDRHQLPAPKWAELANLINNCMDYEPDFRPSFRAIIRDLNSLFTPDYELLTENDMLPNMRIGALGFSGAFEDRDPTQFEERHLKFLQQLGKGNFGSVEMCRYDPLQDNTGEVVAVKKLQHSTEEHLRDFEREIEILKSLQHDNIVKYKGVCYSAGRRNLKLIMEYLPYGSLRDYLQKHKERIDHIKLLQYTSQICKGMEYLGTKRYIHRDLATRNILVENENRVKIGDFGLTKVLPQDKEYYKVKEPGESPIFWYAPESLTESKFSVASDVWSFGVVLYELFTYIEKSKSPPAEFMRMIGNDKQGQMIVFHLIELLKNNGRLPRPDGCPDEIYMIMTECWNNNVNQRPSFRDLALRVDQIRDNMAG", "assay": "Inhibition of JAK2 using Km ATP concentration"}, "[7]": {"biological_target": "T2, Tyrosine-protein kinase JAK2", "assay": "Inhibition of JAK2 using 5 mM of ATP"}, "[8]": {"tested_on": "Liver microsomes", "assay": "Intrinsic clearance in rat liver microsomes assessed per mg of protein at 2 uM by LCMS/MS analysis", "type": "ADME, Microsome"}, "[9]": {"assay": "Oral bioavailability in Han Wistar rat at 10 mg/kg", "type": "ADME, organism-based", "details": "in vivo"}, "[10]": {"assay": "Observed clearance in Han Wistar rat at 10 mg/kg, po and 3 mg/kg, iv", "type": "ADME, organism-based", "details": "in vivo"}, "[11]": {"assay": "Volume of distribution at steady state in Han Wistar rat at 10 mg/kg, po and 3 mg/kg, iv", "type": "ADME, organism-based", "details": "in vivo, read-out: Vdss"}, "[12]": {"assay": "Half life in Han Wistar rat at 10 mg/kg, po and 3 mg/kg, iv", "type": "ADME, organism-based", "details": "in vivo"}}, "data": [{"smiles": "Cc1cc(Nc2nc(O[C@@H](C)c3ncc(F)cn3)ncc2Cl)n[nH]1", "values": [{"measurement": "IC50", "setting": "[1]", "value": 12700, "unit": "nM"}, {"measurement": "GI50", "setting": "[2]", "value": 170, "unit": "nM"}, {"measurement": "solubility thermodynamic", "setting": "[3]", "value": "> 460", "unit": "µM"}, {"measurement": "logD", "setting": "[4]", "value": "< 2.6"}, {"measurement": "EC50", "setting": "[5]", "value": 39000, "unit": "nM"}]}, {"smiles": "Cc1cc(Nc2nc(N[C@@H](C)c3ncc(F)cn3)nc(N3CCOCC3)c2Cl)n[nH]1", "values": [{"measurement": "IC50", "setting": "[6]", "value": "< 3", "unit": "nM"}, {"measurement": "IC50", "setting": "[7]", "value": 9, "unit": "nM"}, {"measurement": "IC50", "setting": "[1]", "value": 11800, "unit": "nM"}, {"measurement": "GI50", "setting": "[2]", "value": 17, "unit": "nM"}, {"measurement": "clearance", "setting": "[8]", "value": 16, "unit": "µL/min/mg"}, {"measurement": "bioavailability", "setting": "[9]", "value": 20, "unit": "%"}, {"measurement": "clearance", "setting": "[10]", "value": 221, "unit": "mL/min/kg"}, {"measurement": "Vd", "setting": "[11]", "value": 4.6, "unit": "L/kg"}, {"measurement": "half-life", "setting": "[12]", "value": 21.6, "unit": "min"}, {"measurement": "solubility thermodynamic", "setting": "[3]", "value": "> 460", "unit": "µM"}, {"measurement": "logD", "setting": "[4]", "value": "< 2.6"}]}, {"smiles": "C[C@H](Nc1ncc(F)c(Nc2cc(C3CC3)[nH]n2)n1)c1ncc(F)cn1", "values": [{"measurement": "IC50", "setting": "[6]", "value": 3, "unit": "nM"}, {"measurement": "GI50", "setting": "[2]", "value": 250, "unit": "nM"}, {"measurement": "solubility thermodynamic", "setting": "[3]", "value": "> 460", "unit": "µM"}, {"measurement": "logD", "setting": "[4]", "value": "< 2.6"}]}, {"smiles": "COc1cc(Nc2cc(N3CCOCC3)nc(N[C@@H](C)c3ncc(F)cn3)n2)n[nH]1", "values": [{"measurement": "IC50", "setting": "[6]", "value": 10, "unit": "nM"}, {"measurement": "IC50", "setting": "[7]", "value": 30, "unit": "nM"}, {"measurement": "IC50", "setting": "[1]", "value": 200, "unit": "nM"}, {"measurement": "GI50", "setting": "[2]", "value": 73, "unit": "nM"}, {"measurement": "solubility thermodynamic", "setting": "[3]", "value": "> 460", "unit": "µM"}, {"measurement": "logD", "setting": "[4]", "value": "< 2.6"}]}, {"smiles": "Cc1cc(Nc2cc(N3CCOCC3)nc(N[C@@H](C)c3ncc(F)cn3)n2)[nH]n1", "values": [{"measurement": "IC50", "setting": "[6]", "value": "< 3", "unit": "nM"}, {"measurement": "IC50", "setting": "[7]", "value": "< 3", "unit": "nM"}, {"measurement": "IC50", "setting": "[1]", "value": 30, "unit": "nM"}, {"measurement": "GI50", "setting": "[2]", "value": 50, "unit": "nM"}, {"measurement": "clearance", "setting": "[8]", "value": 10, "unit": "µL/min/mg"}, {"measurement": "bioavailability", "setting": "[9]", "value": 64, "unit": "%"}, {"measurement": "clearance", "setting": "[10]", "value": 18, "unit": "mL/min/kg"}, {"measurement": "Vd", "setting": "[11]", "value": 1.4, "unit": "L/kg"}, {"measurement": "half-life", "setting": "[12]", "value": 66, "unit": "min"}, {"measurement": "solubility thermodynamic", "setting": "[3]", "value": "> 460", "unit": "µM"}, {"measurement": "logD", "setting": "[4]", "value": "< 2.6"}]}, {"smiles": "C[C@H](Nc1ncc(Cl)c(Nc2cc(N(C)C)[nH]n2)n1)c1ncc(F)cn1", "values": [{"measurement": "IC50", "setting": "[6]", "value": 9, "unit": "nM"}, {"measurement": "IC50", "setting": "[7]", "value": 488, "unit": "nM"}, {"measurement": "IC50", "setting": "[1]", "value": "> 30000", "unit": "nM"}, {"measurement": "GI50", "setting": "[2]", "value": 1200, "unit": "nM"}, {"measurement": "solubility thermodynamic", "setting": "[3]", "value": "> 460", "unit": "µM"}, {"measurement": "logD", "setting": "[4]", "value": "< 2.6"}]}, {"smiles": "Cc1cc(Nc2nc(N[C@@H](C)c3ncc(F)cn3)ncc2F)n[nH]1", "values": [{"measurement": "IC50", "setting": "[1]", "value": 5250, "unit": "nM"}, {"measurement": "GI50", "setting": "[2]", "value": 230, "unit": "nM"}, {"measurement": "clearance", "setting": "[8]", "value": 10, "unit": "µL/min/mg"}, {"measurement": "bioavailability", "setting": "[9]", "value": 100, "unit": "%"}, {"measurement": "clearance", "setting": "[10]", "value": 12, "unit": "mL/min/kg"}, {"measurement": "Vd", "setting": "[11]", "value": 0.8, "unit": "L/kg"}, {"measurement": "half-life", "setting": "[12]", "value": 51, "unit": "min"}, {"measurement": "solubility thermodynamic", "setting": "[3]", "value": "> 460", "unit": "µM"}, {"measurement": "logD", "setting": "[4]", "value": "< 2.6"}]}, {"smiles": "C[C@H](Nc1ncc(Cl)c(Nc2cc(C3CC3)[nH]n2)n1)c1ncc(F)cn1", "values": [{"measurement": "IC50", "setting": "[6]", "value": "< 3", "unit": "nM"}, {"measurement": "GI50", "setting": "[2]", "value": 150, "unit": "nM"}, {"measurement": "solubility thermodynamic", "setting": "[3]", "value": "> 460", "unit": "µM"}, {"measurement": "logD", "setting": "[4]", "value": "< 2.6"}]}, {"smiles": "Cc1cc(Nc2nc(N[C@@H](C)c3ncc(F)cn3)ncc2Br)n[nH]1", "values": [{"measurement": "IC50", "setting": "[6]", "value": "< 3", "unit": "nM"}, {"measurement": "IC50", "setting": "[7]", "value": 10, "unit": "nM"}, {"measurement": "IC50", "setting": "[1]", "value": 4590, "unit": "nM"}, {"measurement": "GI50", "setting": "[2]", "value": 89, "unit": "nM"}, {"measurement": "solubility thermodynamic", "setting": "[3]", "value": "> 460", "unit": "µM"}, {"measurement": "logD", "setting": "[4]", "value": "< 2.6"}]}]}
